One may read the MIC as the least concentration at which growth counts as inhibited.

These results are taken from patent US20210292807A1, “METHOD FOR TESTING ANTIMICROBIAL SUSCEPTIBILITY” (priority 2017, published 2021).

Values after ≈ are worked out from the molar mass of the structure shown. Read-outs that look alike come from different tables or passages of the source.

In one assay the test system is Klebsiella isolates. The assay is described as follows: Acoustic flow cytometry-assisted susceptibility test (FAST), MICFAST and S/NS, Klebsiella isolates. Type of assay: cell-based, Klebsiella pneumoniae, Klebsiella oxytoca. Further details: MICBMD / MICFAST data point (FIG. 8): unit not given here. To be noted: 10 of 14 K. pneumoniae isolates. On the procedure:
A 1 mL aliquot of bacterial suspension was centrifuged, washed and resuspended in 1 mL filtered Hank's Buffered Salt Solution (HBSS; comprising about 0.137 M NaCl, about 5.4 mM KCl, about 0.25 mM Na2HPO4, about 0.1 g Glucose, about 0.44 mM KH2PO4, 1.3 mM CaCl2), 1.0 mM MgSO4, about 1.3 mM CaCl2), 1.0 mM MgSO4, and about 4.2 mM NaHCO3) and diluted in series (e.g., in a 1:10 serial dilution) to a final 1:1000 dilution.
One μL (microliter) of SYTO 9 stain (e.g., ThermoFisher Scientific) working stock solution was added to the final dilution at a final concentration of 5 μM and incubated for 5 minutes before counting bacterial events by acoustic flow cytometer (AFC) (Attune, ThermoFisher, Eugene, Oreg., USA), which was used to prepare a standardised inoculum density for susceptibility testing.
An aliquot of bacterial suspension was added to 50 mL centrifuge tubes (Corning, N.Y.) containing 9 mL of pre-warmed (37° C.) filtered MHB to produce a final density of 5×10^5-1×10^6 bacteria per mL. This suspension was incubated at 37° C. with shaking at 100 RPM for 30 minutes to obtain an actively dividing culture. An aliquot of antibiotic working solution from the previously described dilution series (appropriate to the concentration tested) was then added to each tube before a further 30-minute incubation with shaking, during which time a microbroth dilution (MBD) plate was prepared for overnight incubation at 37° C. as previously described in Clinical and Laboratory Standards Institute (2015) Performance Standards for Antimicrobial Susceptibility Testing: Informational Supplement. CLSI document M100-S25. Clinical and Laboratory Standards Institute, 950, West Valley Road, Suite 2500, Wayne, Pa., 19087, USA.
One millilitre of bacterial suspension from each antibiotic concentration was harvested by centrifugation at 7800×g for 5 minutes, washed and diluted 1:10 in filtered HBSS in a light-impermeable microcentrifuge tube, then stained with SYTO 9 stain at a final concentration of 5 μM, and incubated for 5 min before AFC sampling. Hoechst 33342 dye (NucBlue, Thermo Fisher Scientific, Eugene, Oreg., USA) and a SYTO 9/propidium iodide (PI) combination (Thermo Fisher Scientific) were used in a series of replicate experiments.
The acoustic flow cytometer employed was Attune acoustic flow cytometer (Thermo Fisher Scientific), having installed therein a 488 nm blue laser with a 530/30 nm filter on the photomultiplier tube for measuring fluorescence of cells assayed. Alternatively, the Attune NxT acoustic flow cytometer (Thermo Fisher Scientific) can be employed. AFC was calibrated at the beginning of each acquisition session using fluorescently labelled size calibration beads, in accordance with the manufacturer's instructions (ThermoFisher Scientific). The AFC settings were as follows: Forward Scatter (FSC) voltage 3100, FSC threshold 4×1000 AND, blue laser 1 (BL1—530/30 nm) voltage 1900, BL1 threshold 1×1000 AND, high sensitivity, flow rate 25 μL/minute, and an acquisition volume of 125 μL. Acquisition was halted after either collection of 20,000 events across all gates, or after 3 minutes, with each sample acquired in technical triplicate.
Collected data was exported in the FCS 3.0 file format and analysed in Flow v10.0 (FlowJo LLC, Ashland, Oreg., USA) by a single user, blinded to the MIC results by BMD (MICBMD).
Subsequent to quantitative MICFAST determination, the acoustic flow cytometer data were re-analysed in silico to produce a limited sub-set for qualitative susceptibility determination. The six antibiotic dilutions (0 mg/L, 0.25 mg/L, 1 mg/L, 2 mg/L, 4 mg/L and 16 mg/L) most relevant to qualitative susceptibility assessment were used. In silico analysis was restricted to the first technical triplicate of each recorded sample. Gating strategies remained consistent, with the addition of a gate restricting analysis to only those events recorded in the first 60 seconds of acquisition.
For orientation: Flow cytometry measures light scatter and fluorescence of single cells or particles in a stream.

For a further assay, the system named is K. pneumoniae. Description: AFC susceptibility-associated signature for ceftriaxone and gentamicin (FIG. 19). Type of assay: cell-based, Klebsiella pneumoniae. From the text: FIG. 19 provides graphical and pictorial representations showing rapid determination of susceptibly of bacteria to antimicrobial using the using the AFC-assisted susceptibility testing method of the invention.
This example sets out to investigate utility of the AFC-assisted susceptibility testing method of the invention as a clinical test and tool which can inform use antimicrobial choice in the early hours of sepsis presentation, e.g., by applying the AFC-assisted susceptibility testing method directly to blood cultures.

Turning to `CO/N=C(\C(=O)N[C@@H]1C(=O)N2C(C(=O)O)=C(CSc3nc(=O)c(=O)[nH]n3C)CS[C@H]12)c1csc(N)n1` [ceftriaxone], the “MICBMD / MICFAST data point (FIG. 8)” value in the assay on Klebsiella isolates is 256. Moreover, the MIC with K. pneumoniae (Klebsiella pneumoniae, K. pneumoniae susceptible type strain SSCC 43358, read-out: isolate's MIC (FIG. 19A)) is 0.25 µg/mL (≈ 0.451 µM).

In the assay with K. pneumoniae (K. pneumoniae isolate 244606), gentamicin displayed a minimal inhibitory concentration (MIC) of 1 µg/mL.
